Laboratory results taken from patent publication US20100204182A1, “ECTONUCLEOTIDASE INHIBITORS” (RHEINISCHE FRIEDRICH-WILHELMS-UNIVERSITAT BONN, priority 2006, published 2010).

Experiments:
rat ecto-5′-nucleotidase = molecular target: T1, rat ecto-5′-nucleotidase (Rattus norvegicus, UniProt P21588); assay: Ecto-5′-nucleotidase assay by capillary electrophoresis (CE); type: biochemical; settings: CE method, read-out: Rat Ecto-5′-NT Ki [μM] ± SEM
T1 construct: Catalytically active recombinant soluble glutathione-S-transferase/ecto-5′-nucleotidase fusion protein; GST (glutathione-S-transferase); made in house; host or cells: insect cells, baculovirus system
T1 sequence (P21588 29-551 limits assumed): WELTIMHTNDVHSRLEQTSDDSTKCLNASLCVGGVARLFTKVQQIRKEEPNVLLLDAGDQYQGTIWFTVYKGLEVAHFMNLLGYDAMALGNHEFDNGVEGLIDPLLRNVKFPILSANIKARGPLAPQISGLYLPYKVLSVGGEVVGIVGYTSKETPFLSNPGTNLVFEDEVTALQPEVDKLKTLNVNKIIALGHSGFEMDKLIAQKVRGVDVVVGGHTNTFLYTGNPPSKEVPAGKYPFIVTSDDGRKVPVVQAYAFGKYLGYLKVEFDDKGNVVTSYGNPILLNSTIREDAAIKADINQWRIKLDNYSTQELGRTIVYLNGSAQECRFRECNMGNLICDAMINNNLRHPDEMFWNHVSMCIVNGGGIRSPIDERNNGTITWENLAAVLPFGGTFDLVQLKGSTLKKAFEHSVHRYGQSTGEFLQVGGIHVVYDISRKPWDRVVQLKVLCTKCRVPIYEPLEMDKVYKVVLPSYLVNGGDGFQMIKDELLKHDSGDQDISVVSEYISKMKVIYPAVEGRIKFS
Protocol: Catalytically active recombinant soluble glutathione-S-transferase/ecto-5′-nucleotidase fusion protein was expressed in insect cells using the baculovirus system and purified by affinity chromatography using agarose-coupled GSH as previously described [Servos, J., Reilander, H., Zimmermann, H. Drug. Dev. Res. 1998, 45, 269-276]
Enzyme assays were carried out at 37° C. in a final volume of 100 μl. The reaction buffer consisted of 10 mM Hepes (2.38 g/L), 2 mM MgCl2 […], and 1 mM CaCl2 (0.11 g/L), brought to pH 7.4 by adding the appropriate amount of 1-N aqueous HCl solution. The reaction was initiated by the addition of 10 μl of the appropriately diluted enzyme (0.52 μg). The reaction mixture was incubated for 10 min and terminated by heating at 99° C. for 5 min. Nucleosides and nucleotides were stable under these conditions. Aliquots of the reaction mixture (50 μl) were then transferred to mini-CE vials containing 50 μl of the internal standard uridine (final concentration 20 μM). In the absence of an internal standard similar results were obtained. Each analysis was repeated twice (duplicates) in three separate experiments.
CE separations were carried out using a P/ACE MDQ system (Beckman Coulter Instruments, Fullerton, Calif., USA) equipped with a DAD detection system. The electrophoretic separations were carried out using an eCAP fused-silica capillary [30 cm (20 cm effective length)×75 μm internal diameter (I.D), ×375 μm outside diameter (O.D) obtained from Beckman Coulter]. The following conditions were applied: T=25° C., λmax=260 nm, voltage=15 kV, running buffer 40 mM sodium borate buffer, pH 9.1. The capillary was washed with 0.1 M NaOH for 2 min, deionized water for 1 min, and running buffer for 1 min before each injection. Injections were made by applying 0.1 psi of pressure to the sample solution for 30 s. The amount of adenosine formed was determined. The CE instrument was fully controlled through a personal computer, which operated with the analysis software 32 KARAT obtained from Beckman Coulter. Electropherograms were evaluated using the same software.

hP2Y12 = hP2Y12 (Homo sapiens, UniProt Q9H244); assay: Inhibition of [3H]PSB-0413 binding at hP2Y12; settings: mean ± SEM, read-out: hP2Y12 % Inhibition of [^3H]PSB-0413 Binding at 10 μM, n = 3
Protocol: (§1) In table 2 inhibition data of selected examples at human P2Y receptor subtypes were collected. It can be seen that no compound was identified that inhibited P2Y receptors at high concentrations of 100 μM and 10 μM, respectively.

human NTPDase1 = molecular target: T2, human NTPDase1 (Homo sapiens, UniProt P49961); assay: NTPDase inhibition assay by capillary electrophoresis (CE), NTPDase1; type: biochemical; settings: CE method, ATP 320 μM, Km 17 μM, read-out: NTPDase1 Ki [μM] ± SEM
T2 sequence (P49961 1-510): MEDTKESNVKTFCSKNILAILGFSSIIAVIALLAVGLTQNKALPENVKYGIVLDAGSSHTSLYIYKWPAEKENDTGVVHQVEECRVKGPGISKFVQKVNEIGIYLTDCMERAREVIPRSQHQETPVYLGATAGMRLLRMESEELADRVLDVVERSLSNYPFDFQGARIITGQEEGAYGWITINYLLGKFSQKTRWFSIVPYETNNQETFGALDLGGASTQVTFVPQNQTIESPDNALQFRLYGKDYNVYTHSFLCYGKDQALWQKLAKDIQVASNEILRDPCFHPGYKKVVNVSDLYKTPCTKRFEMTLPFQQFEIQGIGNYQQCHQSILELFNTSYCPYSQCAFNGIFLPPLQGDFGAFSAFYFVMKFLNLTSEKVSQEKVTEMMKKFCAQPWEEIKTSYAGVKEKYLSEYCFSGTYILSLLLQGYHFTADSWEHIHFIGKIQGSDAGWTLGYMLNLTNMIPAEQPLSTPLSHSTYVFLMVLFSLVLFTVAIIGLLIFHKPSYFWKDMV
Protocol: The applied enzyme inhibition assay has been described (Iqbal J, Vollmayer P, Braun N, Zimmermann H, Müller C E. A capillary electrophoresis method for the characterization of ecto-nucleoside triphosphate diphosphohydrolases (NTPDases) and the analysis of inhibitors by in-capillary enzymatic microreaction. Purinergic Signalling 2005, 1, 349-358).
A. CE instrumentation: All experiments were carried out using a P/ACE MDQ capillary electrophoresis system (Beckman Instruments, Fullerton, Calif., USA) equipped with a UV detection system coupled with a diode-array detector (DAD). Data collection and peak area analysis were performed by the P/ACE MDQ software 32 KARAT obtained from Beckman Coulter. The capillary temperature was kept constant at 25° C. The temperature of the sample storing unit was also adjusted to 25° C. The electrophoretic separations were carried out using an eCAP polyacrylamide-coated fused-silica capillary [(30 cm (20 cm effective length)×50 μm internal diameter (I.D.)×360 μm outside diameter (O.D.), obtained from CS-Chromatographie (Langerwehe, Germany)]. The separation was performed using an applied current of −60 μA and a data acquisition rate of 8 Hz. Analytes were detected using direct UV absorbance at 210 nm. The capillary was conditioned by rinsing with water for 2 min and subsequently with buffer (phosphate 50 mM, pH 6.5) for 1 min. Sample injections were made at the cathodic side of the capillary.
B. NTPDase inhibition assay by capillary electrophoresis: Enzyme inhibition assays were carried out at 37° C. in a final volume of 100 μl. The reaction mixture contained 320 μM of ATP (substrate) in reaction buffer. The reaction buffer contained 140 mM NaCl, 5 mM KCl, 1 mM MgCl2, 2 mM CaCl2, and 10 mM Hepes, pH 7.4.
Different concentrations of inhibitors dissolved in DMSO or water (10 μl) were added and the reaction was initiated by the addition of 10 μl of the appropriately diluted recombinant or native human or rat NTPDase enzyme. […] The mixture (final volume 100 μl) was incubated for 15 min and terminated by heating at 99° C. for 4 min. Aliquots of the reaction mixture (50 μl) were then transferred to mini-CE vials and injected into the CE instrument under the conditions described above. 20 μM of UMP was used as internal standard. Inhibition of NTPDase was tested over a range of 6 to 8 concentrations of test compound spanning 3 orders of magnitude to determine K1 values. Each analysis was repeated two times (in triplicates) in two separate experiments. The Cheng-Prusoff equation was used to calculate the K1 values from the IC50 values, determined by the non-linear curve fitting program PRISM® 3.0 (GraphPad, San Diego, Calif., USA). In table 1K, values of selected compounds as inhibitors of human NTPDases are given.

rP2Y6 = rP2Y6 (Rattus norvegicus, UniProt Q63371); assay: Inhibition of UDP binding at rP2Y6; settings: read-out: rP2Y6 % inhibition of UDP binding at 100 μM, n = 3, mean ± SEM
hP2Y2 = hP2Y2 (Homo sapiens, UniProt P41231); assay: Inhibition of UTP binding at hP2Y2; settings: read-out: hP2Y2 % inhibition of UTP binding at 100 μM, n = 3, mean ± SEM
Protocol: as §1

human NTPDase2 = molecular target: T3, human NTPDase2 (Homo sapiens, UniProt Q9Y5L3); assay: NTPDase inhibition assay by capillary electrophoresis (CE), NTPDase2; type: biochemical
T3 sequence (Q9Y5L3 1-495): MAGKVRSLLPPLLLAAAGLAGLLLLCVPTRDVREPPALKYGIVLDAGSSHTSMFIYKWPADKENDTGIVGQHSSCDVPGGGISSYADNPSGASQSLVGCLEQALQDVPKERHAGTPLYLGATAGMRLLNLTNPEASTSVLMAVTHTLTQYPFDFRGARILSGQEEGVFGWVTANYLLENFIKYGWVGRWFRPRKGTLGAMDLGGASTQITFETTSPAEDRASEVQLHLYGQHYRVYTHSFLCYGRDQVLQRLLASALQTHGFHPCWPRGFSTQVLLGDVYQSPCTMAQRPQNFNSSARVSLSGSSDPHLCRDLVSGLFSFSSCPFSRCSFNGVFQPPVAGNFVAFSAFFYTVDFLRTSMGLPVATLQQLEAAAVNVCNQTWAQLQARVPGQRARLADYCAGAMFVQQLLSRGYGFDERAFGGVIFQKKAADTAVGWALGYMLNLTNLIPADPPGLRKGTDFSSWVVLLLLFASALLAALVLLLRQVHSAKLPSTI

hP2Y4 = hP2Y4 (Homo sapiens, UniProt P51582); assay: Inhibition of UTP binding at hP2Y4; settings: read-out: hP2Y4 % inhibition of UTP binding at 100 μM, n = 3, mean ± SEM
Protocol: as §1

Chain of hP2Y2 (P41231 whole entry): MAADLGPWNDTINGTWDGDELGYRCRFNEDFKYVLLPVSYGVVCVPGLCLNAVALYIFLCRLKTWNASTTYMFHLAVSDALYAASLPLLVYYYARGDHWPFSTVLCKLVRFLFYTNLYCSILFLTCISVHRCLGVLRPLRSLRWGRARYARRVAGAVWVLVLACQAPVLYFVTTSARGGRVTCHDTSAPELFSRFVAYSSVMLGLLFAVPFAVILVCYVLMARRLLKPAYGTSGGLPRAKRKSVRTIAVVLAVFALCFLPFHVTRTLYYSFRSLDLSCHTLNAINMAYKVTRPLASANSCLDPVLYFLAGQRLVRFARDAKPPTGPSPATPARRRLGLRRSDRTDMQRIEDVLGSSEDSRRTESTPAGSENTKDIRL
Chain of hP2Y12 (Q9H244 whole entry): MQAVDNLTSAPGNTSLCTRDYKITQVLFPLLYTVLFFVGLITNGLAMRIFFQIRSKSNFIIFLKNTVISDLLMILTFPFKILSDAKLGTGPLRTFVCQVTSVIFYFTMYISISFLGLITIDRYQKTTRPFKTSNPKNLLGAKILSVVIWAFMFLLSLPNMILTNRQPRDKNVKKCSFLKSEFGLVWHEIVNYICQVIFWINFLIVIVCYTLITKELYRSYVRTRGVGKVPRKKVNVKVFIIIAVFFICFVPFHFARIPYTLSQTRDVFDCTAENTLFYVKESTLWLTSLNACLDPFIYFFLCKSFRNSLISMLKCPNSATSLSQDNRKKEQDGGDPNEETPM
Chain of rP2Y6 (Q63371 whole entry): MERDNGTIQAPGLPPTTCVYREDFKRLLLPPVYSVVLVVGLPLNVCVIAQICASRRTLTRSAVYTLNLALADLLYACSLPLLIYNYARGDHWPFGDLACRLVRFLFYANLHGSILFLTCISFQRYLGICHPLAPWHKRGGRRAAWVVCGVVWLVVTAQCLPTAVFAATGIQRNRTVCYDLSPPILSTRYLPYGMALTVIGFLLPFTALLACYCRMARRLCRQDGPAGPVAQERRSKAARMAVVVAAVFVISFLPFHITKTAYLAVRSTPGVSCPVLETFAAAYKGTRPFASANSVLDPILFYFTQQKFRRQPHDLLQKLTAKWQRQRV
Chain of hP2Y4 (P51582 whole entry): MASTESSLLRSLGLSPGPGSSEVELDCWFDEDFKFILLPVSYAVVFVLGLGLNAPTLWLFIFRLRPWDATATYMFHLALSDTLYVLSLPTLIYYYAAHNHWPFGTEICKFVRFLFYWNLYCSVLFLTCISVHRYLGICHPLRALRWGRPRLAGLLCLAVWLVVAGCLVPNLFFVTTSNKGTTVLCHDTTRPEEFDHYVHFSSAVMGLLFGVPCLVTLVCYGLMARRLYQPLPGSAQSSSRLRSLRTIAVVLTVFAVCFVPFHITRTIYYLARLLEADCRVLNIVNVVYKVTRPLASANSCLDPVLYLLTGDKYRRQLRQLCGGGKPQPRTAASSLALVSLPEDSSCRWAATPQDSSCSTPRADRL

Ki (rat ecto-5′-nucleotidase) [µM]	Ki (human NTPDase1) [µM]	Structure (SMILES)	other results
0.78 ± 0.18	10.8 ± 1	O=C(O)CCC(NC(=O)CCNC(=O)[C@H]1O[C@@H](N2CCC(=O)NC2=O)[C@H](O)[C@@H]1O)C(=O)O (stereo partly drawn) [Compound 14, 2-[3-((2S,3R,4S,5R)-5-(2,4-Dioxo-3,4,5,6-tetrahydropyrimidin-1(2H)-yl)-3,4-dihydroxy-tetrahydrofurane-2-carboxamido)propaneamido]-(S)-glutamic acid]	inhibition at 10 µM (hP2Y12): 6 ± 4%
1.61 ± 0.62	–	Cc1cn([C@@H]2O[C@H](C(=O)NCCCC(=O)NC(CC(=O)O)C(=O)O)[C@@H](O)[C@H]2O)c(=O)[nH]c1=O (stereo partly drawn) [Compound 25, 2-[4-((2S,3R,4S,5R)-5-(2,4-Dioxo-5-methylpyrimidin-1(2H)-yl)-3,4-dihydroxy-tetrahydrofurane-2-carboxamido)butaneamido]-(S)-aspartic acid]	–
6.47 ± 1.31	–	O=C(CNC(=O)[C@H]1O[C@@H](n2ccc(=O)[nH]c2=O)C(O)C1O)Nc1ccc(CP(=O)(O)O)cc1 (stereo in doubt) [Compound 21, 4-[2-((2S,3R,4S,5R)-5-(2,4-Dioxo-3,4-dihydropyrimidine-1(2H)-yl)-3,4-dihydroxy-tetrahydrofurane-2-carboxamido)ethaneamido]benzylphosphonic acid]	–
34.3 ± 0.2	–	O=C(O)CC[C@H](NC(=O)CNC(=O)[C@H]1O[C@@H](N2CCC(=O)NC2=O)[C@H](O)[C@@H]1O)C(=O)O [Compound 24, 2-[2-((2S,3R,4S,5R)-5-(2,4-Dioxo-3,4,5,6-dihydropyrimidine-1(2H)-yl)-3,4-dihydroxy-tetrahydrofurane-2-carboxamido)ethaneamido]-(S)-glutamic acid]	–
0.18 ± 0.014	–	O=C(O)C[C@H](NC(=O)CCCNC(=O)[C@H]1O[C@@H](N2CCC(=O)NC2=O)[C@H](O)[C@@H]1O)C(=O)O [Compound 23, 2-[4-((2S,3R,4S,5R)-5-(2,4-Dioxo-3,4,5,6-tetrahydropyrimidine-1(2H)-yl)-3,4-dihydroxy-tetrahydrofurane-2-carboxamido)butaneamido]-(S)-aspartic acid]	–
–	29 ± 4	CCOC(=O)C(CC(=O)O)NC(=O)CCCNC(=O)[C@H]1O[C@@H](n2ccc(=O)[nH]c2=O)[C@H](O)[C@@H]1O (stereo partly drawn) [Compound 15, 2-[4-((2S,3R,4S,5R)-5-(2,4-Dioxo-3,4-dihydropyrimidin-1(2H)-yl)-3,4-dihydroxy-tetrahydrofurane-2-carboxamido)butaneamido]-(S)-aspartic acid-1-ethylester]	inhibition at 100 µM (hP2Y2): -28 ± 11%

Structure (SMILES)	Ki (rat ecto-5′-nucleotidase) [µM]	Ki (human NTPDase1) [µM]	other results
CCOP(=O)(OCC)C(NC(=O)CCNC(=O)[C@H]1O[C@@H](n2ccc(=O)[nH]c2=O)C(O)C1O)P(=O)(OCC)OCC (stereo in doubt) [Compound 11, 3-[(2S,3R,4S,5R)-5-(2,4-Dioxo-3,4-dihydropyrimidin-1(2H)-yl)-3,4-dihydroxy-tetrahydrofurane-2-carboxamido]propaneamidomethylenediphosphonic acid tetraethylester]	–	325 ± 25	inhibition at 100 µM (rP2Y6): 14 ± 2%; inhibition at 100 µM (hP2Y2): -12 ± 24%; Ki (human NTPDase2): ~175 µM; inhibition at 1000 µM (human NTPDase2; read-out: NTPDase2 inhibition (%) at 1 mM): 51%; inhibition at 10 µM (hP2Y12): 1 ± 5%; inhibition at 100 µM (hP2Y4): 7 ± 20%
